Broadly, the inhibition is how much of the control response was suppressed. Read a high inhibition as a strong effect. The term IC50 denotes the point on the concentration scale where inhibition reaches its midpoint. Low readings indicate greater potency, high ones weaker potency.

The values that follow come from patent publication US12617777B2, “GPR84 antagonists and uses thereof” (Liminal BioSciences Limited, priority 2021, dated 2026).

In this experiment the target is T1, human GPR84 receptor (Homo sapiens, UniProt Q9NQS5).
T1 construct: host or cells: HEK293, transient transfection
Nature of the experiment: Gαi biosensor BRET assay in HEK293 cells (antagonism of ZQ-16). Type of experiment: cell-based. Conditions: for inhibition at 2 µM: HEK293, single concentration 2 μM (designated A); for IC50: HEK293 cells, antagonism of 200 nmol/L ZQ-16; for inhibition at 10 µM: HEK293, single concentration 10 μM (designated F); for inhibition at 25 µM: HEK293, single concentration 25 μM (designated I). The method in brief: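 HEK293 cells transiently expressing human GPR84, Gαi2-Rluc8, GFP10-Gγ2 and Gβ1, in Tyrode's buffer pH 7.5. Compounds preincubated 5 min at 37° C, then 200 nmol/L ZQ-16 for 5 min at room temperature; coelenterazine 400A 5 μmol/L. BRET2 acceptor/donor ratio, background- and vehicle-corrected net BRET.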
(In general: In BRET a luciferase serves as donor, and the signal depends on an acceptor being close.)

T1 sequence (Q9NQS5 whole entry): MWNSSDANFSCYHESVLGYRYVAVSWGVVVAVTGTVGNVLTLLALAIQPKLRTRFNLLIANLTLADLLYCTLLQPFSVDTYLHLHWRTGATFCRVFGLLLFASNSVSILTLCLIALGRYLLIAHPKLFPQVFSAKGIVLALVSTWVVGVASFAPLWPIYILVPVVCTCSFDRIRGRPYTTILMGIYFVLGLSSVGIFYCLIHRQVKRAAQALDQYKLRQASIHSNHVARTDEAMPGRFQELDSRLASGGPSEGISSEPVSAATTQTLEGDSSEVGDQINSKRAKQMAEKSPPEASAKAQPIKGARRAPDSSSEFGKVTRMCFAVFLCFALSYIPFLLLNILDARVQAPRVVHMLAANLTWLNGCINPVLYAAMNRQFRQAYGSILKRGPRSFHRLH

As to `C(#CC1CC1)c1cnc(-c2cn(C[C@H]3CCCCO3)nn2)c(OC2CC2)c1` [Compound I-701], the inhibition at 2 µM was more than 75% and the 50% inhibitory concentration (IC50) was not above 0.3 µM.
Consider `CC1(C)COC(Cn2cc(-c3ncc(N4CC(C)(CO)C4)cc3Cl)nn2)OC1` [Compound I-765], for which the concentration for half-maximal inhibition (IC50) was 1 to 3 µM.
Consider `Cc1ccc(N2CCN(Cc3ccccn3)CC2)cc1-c1cn(CC2CCCCO2)nn1` (centres unmarked) [Compound I-564], for which the inhibition at 10 µM was not above 25%.
On the same count and under the same terms, as for `O=C(O)c1cc(C#CC2CC2)ccc1-c1cn(CC2CCCCO2)nn1` (centres unmarked) [Compound I-309], the figure is not above 25%; as for `Cc1cc(C#CC2CC2)sc1-c1cn(CC2CCCCO2)nn1` (centres unmarked) [Compound I-116], 25 to 50%; as for `COCC(=O)N1CCCCC1Cn1cc(-c2ccc(C#CC3CC3)cc2C)nn1` (centres unmarked) [Compound I-192], not above 25%.
`Cc1cc(N2CC3(CN(c4cccnc4)C3)C2)ccc1-c1cn(CC2CCCCO2)nn1` (centres unmarked) [Compound I-629]: the inhibition at 10 µM is not above 25%.
On to `Cc1c(-c2ccc(C#CC3CC3)cc2)nnn1C[C@H]1CCCCO1` [Compound I-29], for which the inhibition at 25 µM lay in the range of 50 to 75%.
Turning to `Cc1cc(N2CC3(CCN(c4ccccn4)CC3)C2)ccc1-c1cn(CC2CCCCO2)nn1` (centres unmarked) [Compound I-567], the inhibition at 10 µM lay within 50 to 75% and the IC50 lay within 1 to 3 µM.
The compound `OCC#Cc1cnc(-c2cn(CC3OCC4(CC4)CO3)nn2)c(OC2CC2)c1` [Compound I-839] had an inhibition at 10 µM of more than 75%.
Take `Cc1cc(N2CC3(CCN(C)C3)C2)ccc1-c1cn(CC2CCCCO2)nn1` (centres unmarked) [Compound I-168]: the inhibition at 10 µM was not above 25%.
The compound `C(#Cc1ccc(-c2cn(CC3CCCCO3)nn2)cc1)CN1CCCCC1` (centres unmarked) [Compound I-48] displayed an inhibition at 15 µM (HEK293, single concentration 15 μM (designated H)) not above 25%.
As to `Cc1cc(N2CC(C)(CO)C2)c(F)cc1-c1cn(C[C@H]2CCCCO2)nn1` [Compound I-804], the IC50 lay in the range of 0.3 to 1 µM. For the setting “HEK293, single concentration 1 μM (designated A°)”, this compound gave an inhibition at 1 µM of 25 to 50%.
`Cc1cc(C#CCNC(=O)c2ccccc2)ccc1-c1cn(CC2CCCCO2)nn1` (centres unmarked) [Compound I-209] gave a half-maximal inhibitory concentration (IC50) of more than 2 µM.
Turning to `COCc1cc(C#CC2CC2)ccc1-c1cn(CC2CCCCO2)nn1` (centres unmarked) [Compound I-206], the inhibition at 10 µM was 50 to 75%.
In the case of `Cc1cc(N2CCN([C@@H](C)c3ccccn3)CC2)ccc1-c1cn(CC2OCC(C)(C)CO2)nn1` [Compound I-716], the inhibition at 10 µM was more than 75% and the IC50 was 0.3 to 1 µM.
On to `Cc1cc(CN2CC(=O)NC2=O)ccc1-c1cn(CC2CCCCO2)nn1` (centres unmarked) [Compound I-558], for which the inhibition at 10 µM was not above 25%.
`Cc1cc(C#CC2CC2)cnc1-c1cn(CC2CCCCO2)nn1` (centres unmarked) [Compound I-866] showed a half-maximal inhibitory concentration (IC50) of 1 to 3 µM.
In turn, `Cc1cc(C#CC2CC2)ccc1-n1nc(OC[C@H]2COCCO2)oc1=O` [Compound I-13] gave an inhibition at 10 µM of 25 to 50%.
`COCC1(C)CN(c2ccc(-c3cn(CC4CCCCO4)nn3)c(C)c2)C1` (centres unmarked) [Compound I-439]: the inhibition at 10 µM was 25 to 50%.
On the same count and under the same terms, as for `Cc1cc(C#CC2CC2)cnc1-c1cn(CC2CC(C)(C)O2)nn1` (centres unmarked) [Compound I-420], the figure is 50 to 75%.
`O=c1oc(CC2COCCO2)nn1-c1ccc(C#CC2CC2)cc1` (centres unmarked) [Compound I-10, 5-((1,4-dioxan-2-yl)methyl)-3-(4-(cyclopropylethynyl)phenyl)-1,3,4-oxadiazol-2(3H)-one] gave an inhibition at 25 µM not above 25%.
The compound `CCn1cc(-c2ccc(-c3cn(CC4CCCCO4)nn3)c(C)c2)cn1` (centres unmarked) [Compound I-194] registered an inhibition at 10 µM not above 25%.
Compound `CC1(C)COC(Cn2cc(-c3ncc(C#CCNCc4ccccn4)cc3OC3CC3)nn2)OC1` [Compound I-772] yielded an IC50 not above 0.3 µM.
`Cc1nn(CC2CCCCO2)cc1-c1ccc(C#CC2CC2)cc1` (centres unmarked) [Compound I-319] yielded an inhibition at 25 µM not above 25%.
With `C(#CC1CC1)c1ccc(-n2cc(CC3CCCO3)nn2)cc1` (centres unmarked) [Compound I-295], the inhibition at 25 µM is not above 25%.
`CC#Cc1ccc(C)c(N(C)c2cn(CC3OCC4(CC4)CO3)nn2)c1` [Compound I-850] gave an inhibition at 10 µM of more than 75%.
The same measure, in the same setting: as for `Cc1cc(C#CC2CC2)ccc1-c1cn(CC2OCc3ccccc32)nn1` (centres unmarked) [Compound I-100], the figure is not above 25%.
In turn, `FC(F)(F)COc1cc(C#CC2CC2)cnc1-c1cn(CC2OCC3(CCC3)O2)nn1` (centres unmarked) [Compound I-815] gave an inhibition at 2 µM of more than 75%.
Take `c1ccc(COc2ccc(-c3cn(CC4CCCCO4)nn3)cc2)cc1` (centres unmarked) [Compound I-53]: the inhibition at 25 µM was not above 25%.
In turn, `Cc1ccc(C#CCNCc2ccccc2)cc1-c1cn(CC2CCCCO2)nn1` (centres unmarked) [Compound I-201] yielded an inhibition at 10 µM not above 25%.
Same read-out and setting: as for `Cc1cc(N2CCCC2)ccc1-c1cn(CC2CCCCO2)nn1` (centres unmarked) [Compound I-472], the figure is 25 to 50%; as for `Cc1cc(C#CC2CC2)ccc1-c1cn(CCOC(C)(C)C)nn1` [Compound I-98], not above 25%.
Compound `Cc1cc(N2CCN(Cc3cccnn3)CC2)ccc1-c1cn(CC2CCCCO2)nn1` (centres unmarked) [Compound I-548] came in with an inhibition at 10 µM of 50 to 75% and a half-inhibitory concentration (IC50) of more than 3 µM.
`Cc1cc(C#CC2CC2)ccc1-c1cn(CC2CCCCS2)nn1` (centres unmarked) [Compound I-258] had an inhibition at 10 µM of 50 to 75%.
On the same count and under the same terms, as for `CN(C)c1cc(N2CC3(COC3)C2)ccc1-c1cn(CC2OCC3(CC3)CO2)nn1` [Compound I-853], the figure is not above 25%.
In turn, `Cc1cc(C#CCNC2CC2)ccc1-c1cn(CC2OCC(C)(C)CO2)nn1` [Compound I-697] yielded an inhibition at 10 µM of more than 75% and a half-maximal inhibitory concentration (IC50) of 0.3 to 1 µM.
On to `Cc1cc(C#CCNC(C)C)ccc1-c1cn(CC2CCCCO2)nn1` (centres unmarked) [Compound I-131], for which the inhibition at 10 µM is not above 25%.
As to `CC(=O)NC(C)(C)COc1ccc(-c2cn(CC3CCCCO3)nn2)c(C)c1` (centres unmarked) [Compound I-265], the inhibition at 10 µM is 25 to 50%.
Compound `Cc1cc(C#CC2CC2)ccc1-c1nnc(CC2CCCCO2)o1` (centres unmarked) [Compound I-342, 2-(4-(cyclopropylethynyl)-2-methylphenyl)-5-((tetrahydro-2H-pyran-2-yl)methyl)-1,3,4-oxadiazole] registered an inhibition at 10 µM not above 25%.
For the compound `Cc1cc(C#CC2CC2)ccc1-c1cn(CCOCC2CCCCO2)nn1` (centres unmarked) [Compound I-85], the inhibition at 25 µM was in the range of 25 to 50%.
For `Cc1cc(C#CC2CC2)ccc1-c1cn(CC2OCCCC2(C)C)nn1` (centres unmarked) [Compound I-522, 4-(4-(cyclopropylethynyl)-2-methylphenyl)-1-((3,3-dimethyltetrahydro-2H-pyran-2-yl)methyl)-1H-1,2,3-triazole], the inhibition at 10 µM lay within 50 to 75%.
The same measure, in the same setting: as for `N#Cc1cc(C#CC2CC2)ccc1-c1cn(CC2CCCCO2)nn1` (centres unmarked) [Compound I-133], the figure is 50 to 75%.
Still for that read-out and setting: as for `CC1(CO)CN(c2cnc(-c3cn(CC4OCC5(CCC5)O4)nn3)c(Cl)c2)C1` (centres unmarked) [Compound I-807], the figure is more than 75%; as for `Cc1cc(C2CCN(c3ccccn3)CC2)ccc1-c1cn(CC2CCCCO2)nn1` (centres unmarked) [Compound I-583], not above 25%; as for `COCC#Cc1ccc(-c2nnn(CC3CCCCO3)c2C)cc1` (centres unmarked) [Compound I-244], 25 to 50%.
On the same count and under the same terms, as for `COCC#Cc1cnc(-c2cn(CC3OCC(C)(C)CO3)nn2)c(OCC(F)(F)F)c1` [Compound I-847], the figure is not above 25%; as for `Cc1cc(C#CCN2CCC(F)(F)CC2)cnc1-c1cn(CC2CCCCO2)nn1` (centres unmarked) [Compound I-250], 50 to 75%; as for `Clc1cc(C#CC2CC2)cnc1-c1cn(C[C@H]2CCCCO2)nn1` [Compound I-823], not above 25%.
The compound `C(#CC1CC1)c1ccc(-c2cn(CC3OCCCO3)nn2)cc1` [Compound I-102] gave an inhibition at 10 µM of 25 to 50%.
`CC1(C)COC(Cn2cc(-c3ncc(C#CC4CC4)cc3Cl)nn2)OC1` [Compound I-708]: the inhibition at 10 µM is more than 75% and the IC50 is not above 0.3 µM.
Compound `Cc1ccc(C#CC2CC2)cc1Nc1cnn(CC2OCC(C)(C)CO2)n1` [Compound I-759, N-(5-(cyclopropylethynyl)-2-methylphenyl)-2-((5,5-dimethyl-1,3-dioxan-2-yl)methyl)-2H-1,2,3-triazol-4-amine] yielded an inhibition at 10 µM not above 25%.
With `C(#CC1CC1)c1ccc(-c2cn(CC3CCCCO3)nn2)cn1` (centres unmarked) [Compound I-35], the inhibition at 25 µM was not above 25%.
`O=c1oc(CC2CCCCO2)nn1-c1ccc(C#CC2CC2)cc1` (centres unmarked) [Compound I-11]: the inhibition at 25 µM was in the range of 25 to 50%.
`C(#CC1CC1)c1ccc(-c2cn(C[C@H]3CCCO3)nn2)cc1` [Compound I-27] came in with an inhibition at 25 µM of 25 to 50% and an IC50 of more than 3 µM.
In turn, `Cc1ccc(OCc2ccccn2)cc1Cc1cn(CC2CCCCO2)nn1` (centres unmarked) [Compound I-444] came in with an inhibition at 10 µM not above 25%.
`FC(F)(F)Cc1cc(N2CCN(Cc3ccccn3)CC2)ccc1-c1cn(C[C@H]2CCCCO2)nn1` [Compound I-746] registered an inhibition at 2 µM of more than 75% and a half-inhibitory concentration (IC50) not above 0.3 µM.
Turning to `Cc1cc(C#CCNc2ccccc2)ccc1-c1cn(CC2CCCO2)nn1` (centres unmarked) [Compound I-62], the inhibition at 10 µM is more than 75% and the half-inhibitory concentration (IC50) is more than 3 µM.
As for `Cc1cc(C#CC2CC2)ccc1-c1cn(CCOCC2COCCO2)nn1` (centres unmarked) [Compound I-92], the inhibition at 25 µM was 25 to 50%.
For the compound `Cc1cc(OCC(C)(C)N)ccc1-c1cn(CC2CCCCO2)nn1` (centres unmarked) [Compound I-287], the inhibition at 10 µM is not above 25%.
On the same count and under the same terms, as for `Cc1cc(NC(=O)N2CCCC2)ccc1-c1cn(CC2CCCCO2)nn1` (centres unmarked) [Compound I-110], the figure is not above 25%.
Take `Cc1cc(NC(=O)C2CC2)ccc1-c1cn(CC2CCCCO2)nn1` (centres unmarked) [Compound I-109]: the inhibition at 10 µM fell in the range of 25 to 50%.
For `Cc1c(C#CC2CC2)cccc1C(C)c1cn(C[C@H]2CCCCO2)nn1` (some centres unmarked) [Compound I-741], the inhibition at 10 µM was more than 75%.
In turn, `CC(C)C#Cc1cnc(-c2cn(CC3OCC4(CC4)CO3)nn2)c(OC2CC2)c1` [Compound I-861] had an inhibition at 10 µM of more than 75%.
